Data taken from patent US20250195502A1, “APPLICATION OF TETRACYCLIC COMPOUND IN TREATMENT OF TUMORS” (SHANGHAI SHIJIANG BIOTECHNOLOGY CO., LTD, priority 2022, published 2025).

Each compound was assayed on SF126 (human glioblastoma multiforme cell) (assay: Cell viability assay (Promega CellTiter-Glo), inhibitory effect on SF126). Conditions: 72 h, SF-126, 3 days of culture, Table 3, read-out: inhibitory effect on SF-126 (IC50).
Format: cell-based
Procedure: (§1) The inhibitory effect of the compounds prepared in the Examples of the present invention on various tumor cell lines was detected using cell viability assay reagent.
(§2) Cell viability was detected using the Promega CellTiter-Glo kit, cell viability was determined by directly measuring intracellular ATP content. In the experiment, the ICso value of the compounds prepared in the Examples of the present invention on various tumor cell lines was detected.
(§3) Each tumor cell was cultured in relevant medium. After cell passage, the gradient diluted compounds prepared in the Examples of the present invention was added. After 3 days of culture, the relevant IC50 (50% inhibiting concentration) was measured. The name, source and culture conditions of each tumor cell line were as follows:
Cell line SF126 (JCRB, No. IFO50286) was cultured in 10% fetal bovine serum-containing EMEM medium (+P/S).
(§4) The inhibitory effect of the compounds prepared in the Examples of the present invention on various brain tumor cell lines was detected using cell viability assay reagent.
(§5) Cell viability was detected using the Promega CellTiter-Glo kit, cell viability was determined by directly measuring intracellular ATP content. In the experiment, the IC50 value of the compounds prepared in the Examples of the present invention on various brain tumor cell lines was detected.

First: CCCCCCCc1c2[n+](cc3c(OC)c(OC)ccc13)CCc1cc3c(cc1-2)OCO3 [compound AB31760]
Second: COc1ccc2c(CCC(C)C)c3[n+](cc2c1OC)CCc1cc2c(cc1-3)OCO2 [compound AB31765]
The IC50 of the first is 2.5-fold lower: 3890 nM for the first, 9800 nM for the second.

Same assay, conditions: SF-126, 72 h, SF126, 3 days of culture, Table 4, read-out: inhibitory effect on brain cell line SF126 (IC50)

Going from `CCCCCCCc1c2[n+](cc3c(OC)c(OC)ccc13)CCc1cc3c(cc1-2)OCO3` [compound AB31760] to `COc1ccc2c(CCC(C)C)c3[n+](cc2c1OC)CCc1cc2c(cc1-3)OCO2` [compound AB31765], the IC50 rises from 3890 nM to 9800 nM (2.5-fold).

Each compound was assayed on NB-1 (brain neuroblastoma cell) (assay: Cell viability assay (Promega CellTiter-Glo), inhibitory effect on NB-1). Conditions: Homo sapiens, 72 h, 3 days of culture, read-out: inhibitory effect on brain cell line NB-1 (IC50).
Format: cell-based
Procedure: as §4, §5, §3
Cell line NB-1 (ATCC, No. HTB-131) was cultured in 10% fetal bovine serum-containing Leibovitz's L-15 medium (+P/S).

Compared with `CCCCCCCc1c2[n+](cc3c(OC)c(OC)ccc13)CCc1cc3c(cc1-2)OCO3` [compound AB31760], `COc1ccc2c(CCC(C)C)c3[n+](cc2c1OC)CCc1cc2c(cc1-3)OCO2` [compound AB31765] is 3.3-fold higher in IC50: 90 nM for the first, 300 nM for the second.

These compounds were tested on NCI-H82 (human small cell lung cancer cell) (assay: Cell viability assay (Promega CellTiter-Glo), inhibitory effect on NCI-H82). Conditions: 72 h, 3 days of culture.
Format: cell-based
Procedure: as §1, §2, §3
Cell line NCI-H82 (ATCC, No. HTB-175) was cultured in 10% fetal bovine serum-containing RPMI1640 medium (+P/S).

Going from `CCCCCCCc1c2[n+](cc3c(OC)c(OC)ccc13)CCc1cc3c(cc1-2)OCO3` [compound AB31760] to `COc1ccc2c(CCC(C)C)c3[n+](cc2c1OC)CCc1cc2c(cc1-3)OCO2` [compound AB31765], the IC50 rises from 150 nM to 1340 nM (8.9-fold).

Each compound was assayed on Kelly (brain neuroblastoma cell) (assay: Cell viability assay (Promega CellTiter-Glo), inhibitory effect on Kelly). Conditions: Homo sapiens, 72 h, 3 days of culture, read-out: inhibitory effect on brain cell line Kelly (IC50).
Format: cell-based
Procedure: as §4, §5, §3
Cell line Kelly (ECACC, No. 92110411) was cultured in 10% fetal bovine serum and 2 mM glutamine-containing RPMI1640 medium.

First: CCCCCCCc1c2[n+](cc3c(OC)c(OC)ccc13)CCc1cc3c(cc1-2)OCO3 [compound AB31760]
Second: COc1ccc2c(CCC(C)C)c3[n+](cc2c1OC)CCc1cc2c(cc1-3)OCO2 [compound AB31765]
The IC50 of the first is 5.6-fold lower: 230 nM for the first, 1290 nM for the second.

What follows are compounds tested on G-401 (human renal carcinoma Wilms cell) (assay: Cell viability assay (Promega CellTiter-Glo), inhibitory effect on G-401). Conditions: 72 h, 3 days of culture.
Format: cell-based
Procedure: as §1, §2, §3
Cell line G-401 (ATCC, No. CRL-1441) was cultured in 10% fetal bovine serum-containing McCoy's 5a medium (+P/S).

Going from `CCCCCCCc1c2[n+](cc3c(OC)c(OC)ccc13)CCc1cc3c(cc1-2)OCO3` [compound AB31760] to `COc1ccc2c(CCC(C)C)c3[n+](cc2c1OC)CCc1cc2c(cc1-3)OCO2` [compound AB31765], the IC50 rises from 150 nM to 1270 nM (8.5-fold). The first is the more potent here.

The compounds below were run on sh-DNMT1 NCI-H82 cell (DNMT1 knocked down NCI-H82) (assay: Cell viability assay (Promega CellTiter-Glo), inhibitory effect on sh-DNMT1 NCI-H82 cell). Conditions: Homo sapiens, NCI-H82 with DNMT1 knocked down by shRNA.
Format: cell-based
Procedure: (§6) The role of expression level of NNMT gene and DNMT1 in the sensitivity of NCI-H82 cell to the compounds prepared in the Examples of the present invention was determined
(§7) The expression of NNMT protein in NCI-H82 cell was overexpressed by inserting the NNMT gene into NCI-H82 cell using a viral vector, and the NNMT protein-overexpressing NCI-H82 cell (ov-NNMT NCI-H82 cell) was obtained. The expression of DNMT1 in NCI-H82 cell was knocked down transfecting (the by shRNA nucleotide sequence of shRNA was […] TTTTTG (SEQ ID No: 2)) using a viral vector, and the NCI-H82 cell with low expression of DNMT1 protein (sh-DNMT1 NCI-H82 cell) was obtained. The control NCI-H82 cell (Con-NCI-H82 cell) was obtained by transfecting NCI-H82 cell with empty virus vector without carrying NNMT gene and shRNA. The expressing content of NNMT protein and DNMT1 protein in the Con-NCI-H82 cell, the expressing content of NNMT protein in the ov-NNMT NCI-H82 cell, and the expressing content of DNMT1 protein in the sh-DNMT1 NCI-H82 cell were detected using Western Blot assay (as shown in FIG. 15 and FIG. 16), it could be seen from FIG. 15 and FIG. 16 that the NNMT protein was overexpressed in the ov-NNMT NCI-H82 cell and the expression of DNMT1 protein was knocked down (i.e, low expression) in the sh-DNMT1 NCI-H82 cell compared with the expression level of NNMT protein and DNMT protein in the Con-NCI-H82 cell.

Compared with `CCCCCCCc1c2[n+](cc3c(OC)c(OC)ccc13)CCc1cc3c(cc1-2)OCO3` [compound AB31760], `COc1ccc2c(CCC(C)C)c3[n+](cc2c1OC)CCc1cc2c(cc1-3)OCO2` [compound AB31765] is 5.7-fold higher in IC50: 710 nM for the first, 4050 nM for the second. The first is the more potent here.

Each compound was assayed on GB-1 (human brain glioblastoma cell) (assay: Cell viability assay (Promega CellTiter-Glo), inhibitory effect on GB-1). Conditions: 72 h, 3 days of culture, Table 3, read-out: inhibitory effect on GB-1 (IC50).
Format: cell-based
Procedure: as §1, §2, §3
Cell line GB-1 (JCRB, No. IFO50489) was cultured in 10% fetal bovine serum-containing DMEM medium (+P/S).
as §4, §5

Going from `CCCCCCCc1c2[n+](cc3c(OC)c(OC)ccc13)CCc1cc3c(cc1-2)OCO3` [compound AB31760] to `COc1ccc2c(CCC(C)C)c3[n+](cc2c1OC)CCc1cc2c(cc1-3)OCO2` [compound AB31765], the IC50 rises from 3670 nM to 14800 nM (4-fold).

Same assay, conditions: 72 h, 3 days of culture, Table 4, read-out: inhibitory effect on brain cell line GB-1 (IC50)

Compared with `CCCCCCCc1c2[n+](cc3c(OC)c(OC)ccc13)CCc1cc3c(cc1-2)OCO3` [compound AB31760], `COc1ccc2c(CCC(C)C)c3[n+](cc2c1OC)CCc1cc2c(cc1-3)OCO2` [compound AB31765] is 4-fold higher in IC50: 3670 nM for the first, 14800 nM for the second. The first is the more potent here.

These compounds were tested on D341 Med (cerebellar medulloblastoma cell) (assay: Cell viability assay (Promega CellTiter-Glo), inhibitory effect on D341 Med). Conditions: Homo sapiens, 72 h, 3 days of culture, read-out: inhibitory effect on brain cell line D341 Med (IC50).
Format: cell-based
Procedure: as §4, §5, §3
Cell line D341 Med (ATCC, No. HTB-187) was cultured in 20% fetal bovine serum-containing EMEM medium (+P/S).

Going from `CCCCCCCc1c2[n+](cc3c(OC)c(OC)ccc13)CCc1cc3c(cc1-2)OCO3` [compound AB31760] to `COc1ccc2c(CCC(C)C)c3[n+](cc2c1OC)CCc1cc2c(cc1-3)OCO2` [compound AB31765], the IC50 rises from 700 nM to 1630 nM (2.3-fold).

These compounds were tested on 786-O (clear cell renal cell adenocarcinoma cell) (assay: Cell viability assay (Promega CellTiter-Glo), inhibitory effect on 786-O). Conditions: Homo sapiens, 786-0, 72 h, 3 days of culture.
Format: cell-based
Procedure: as §1, §2, §3
Cell line 786-0 (ATCC, No. CRL-1932) was cultured in 10% fetal bovine serum-containing RPMI1640 medium (+P/S).

First: CCCCCCCc1c2[n+](cc3c(OC)c(OC)ccc13)CCc1cc3c(cc1-2)OCO3 [compound AB31760]
Second: COc1ccc2c(CCC(C)C)c3[n+](cc2c1OC)CCc1cc2c(cc1-3)OCO2 [compound AB31765]
The IC50 of the first is 5.7-fold lower: 1600 nM for the first, 9090 nM for the second. The first is the more potent here.

These compounds were tested on MDA-MB-453 (breast cancer cell) (assay: Cell viability assay (Promega CellTiter-Glo), inhibitory effect on MDA-MB-453). Conditions: Homo sapiens, 72 h, 3 days of culture.
Format: cell-based
Procedure: as §1, §2, §3
Cell line MDA-MB-453 (ATCC, No. HTB-131) was cultured in 10% fetal bovine serum-containing Leibovitz's L-15 medium (+P/S).

First: CCCCCCCc1c2[n+](cc3c(OC)c(OC)ccc13)CCc1cc3c(cc1-2)OCO3 [compound AB31760]
Second: COc1ccc2c(CCC(C)C)c3[n+](cc2c1OC)CCc1cc2c(cc1-3)OCO2 [compound AB31765]
The IC50 of the first is 4.3-fold lower: 250 nM for the first, 1070 nM for the second. The first is the more potent here.

Each compound was assayed on Con-NCI-H82 cell (NCI-H82 transfected with empty virus vector) (assay: Cell viability assay (Promega CellTiter-Glo), inhibitory effect on Con-NCI-H82 cell). Conditions: Homo sapiens; NCI-H82 transfected with empty virus vector (control); CellTiter-Glo; read-out: inhibitory effect on Con-NCI-H82 (IC50).
Format: cell-based
Procedure: as §6, §7

First: CCCCCCCc1c2[n+](cc3c(OC)c(OC)ccc13)CCc1cc3c(cc1-2)OCO3 [compound AB31760]
Second: COc1ccc2c(CCC(C)C)c3[n+](cc2c1OC)CCc1cc2c(cc1-3)OCO2 [compound AB31765]
The IC50 of the first is 8.9-fold lower: 150 nM for the first, 1340 nM for the second. The first is the more potent here.

These compounds were tested on ov-NNMT NCI-H82 cell (NNMT protein-overexpressing NCI-H82) (assay: Cell viability assay (Promega CellTiter-Glo), inhibitory effect on ov-NNMT NCI-H82 cell). Conditions: Homo sapiens.
Format: cell-based
Procedure: as §6, §7

Going from `CCCCCCCc1c2[n+](cc3c(OC)c(OC)ccc13)CCc1cc3c(cc1-2)OCO3` [compound AB31760] to `COc1ccc2c(CCC(C)C)c3[n+](cc2c1OC)CCc1cc2c(cc1-3)OCO2` [compound AB31765], the IC50 rises from 350 nM to 2880 nM (8.2-fold).

The compounds below were run on CFPAC-1 (human pancreatic cancer cell) (assay: Cell viability assay (Promega CellTiter-Glo), inhibitory effect on CFPAC-1). Conditions: 72 h, 3 days of culture.
Format: cell-based
Procedure: as §1, §2, §3
Cell line CFPAC-1 (ATCC, No. CRL-1918) was cultured in 10% fetal bovine serum-containing IMDM medium (+P/S).

First: CCCCCCCc1c2[n+](cc3c(OC)c(OC)ccc13)CCc1cc3c(cc1-2)OCO3 [compound AB31760]
Second: COc1ccc2c(CCC(C)C)c3[n+](cc2c1OC)CCc1cc2c(cc1-3)OCO2 [compound AB31765]
The IC50 of the first is 8-fold lower: 2710 nM for the first, 21700 nM for the second. The first is the more potent here.

What follows are compounds tested on SW48 (human colon adenocarcinoma cell) (assay: Cell viability assay (Promega CellTiter-Glo), inhibitory effect on SW48). Conditions: 72 h, 3 days of culture.
Format: cell-based
Procedure: as §1, §2, §3
Cell line SW48 (ATCC, No. CCL-231) was cultured in 10% fetal bovine serum-containing Leibovitz's L-15 medium (+P/S).

Compared with `CCCCCCCc1c2[n+](cc3c(OC)c(OC)ccc13)CCc1cc3c(cc1-2)OCO3` [compound AB31760], `COc1ccc2c(CCC(C)C)c3[n+](cc2c1OC)CCc1cc2c(cc1-3)OCO2` [compound AB31765] is 5.5-fold higher in IC50: 210 nM for the first, 1160 nM for the second.
